Drawing on PubChem BioAssay (NCI), this text covers TGI for eleven compounds.

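Compound exposure: 48 hours, 5 concentrations, 96-well plates. TGI marks complete inhibition of growth.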 Some results are limits rather than exact numbers.

Common to all, as to test: NCI-60 cell line screen, 48 h
Test [1] concerns KM12 colon.
Test [2] deals with SF-539 CNS.
For test [3], the system named is SW-620 colon.
In test [4] the test system is OVCAR-8 ovarian.
In test [5] the test system is NCI-H226 lung.
The subject of test [6] is U251 CNS.
Test [7] concerns UO-31 renal.
Test [8] has as its system MCF7 breast.
Test [9] has as its system EKVX NSCLC.
Test [10] relates to LOX IMVI melanoma.

On to `COc1cc(/C=C2/C(=O)N=C(NC(C)=O)N2C)ccc1OC(C)=O`, for which the TGI in test [1], in test [2], in test [3], in test [4], in test [5] and in test [6] was over 100 µM throughout. The TGI in [7], in test [8], in [9] and in test [10] was over 100 µM throughout.
Regarding `CC1=C(c2ccc(C)cc2)NC(=S)C(C)C(c2ccc(C)cc2)=N1` (stereo not given), the TGI in test [1], in test [2], in test [3], in test [4], in test [5] and in test [6] was over 100 µM each time. Further, the TGI in test [7], in test [8], in test [9] and in test [10] was over 100 µM each time.
In the case of `O=C1Cc2c(-c3ccccc3)cc(-c3ccc4ccccc4c3)nc2-c2ccccc2N1`, the TGI in test [1] is 28.3 µM; in [2], over 100 µM; in test [3], over 100 µM; in test [4], 4.9 µM; in test [5], over 100 µM; in test [6] it was over 100 µM. In addition, the TGI in test [7] is over 100 µM; in test [8], over 100 µM; in test [9], 76.4 µM; in test [10], over 100 µM.
For `N#Cc1nc(NC(=O)c2ccccc2)sc1N`, the TGI in test [1], in test [2], in test [3], in test [4], in test [5] and in test [6] was over 10 µM in each case. In addition, the TGI in test [7], in [8], in [9] and in test [10] was over 10 µM each time.
As to `CC(=O)O[C@H]1CC[C@@]2(C)C(=CC[C@H]3[C@@H]4C/C(=C\c5ccncc5)[C@H](OC(C)=O)[C@@]4(C)CC[C@@H]32)C1`, the TGI in [1] was 16.3 µM; in test [2], 15.6 µM; in test [3], 17.2 µM; in test [4], 34.5 µM; in [5] it was 34.6 µM; in [6], 23.1 µM. Also, the TGI turned out to be 20.7 µM in test [7], 30.3 µM in test [8], 36.3 µM in [9] and 13.3 µM in test [10].
Turning to `COc1cc2c(cc1O)-c1c(OC)c(O)cc3c1C(C2)N(C)CC3` (stereo not given), the TGI in test [1], in test [2], in [3], in test [4], in [5] and in test [6] was over 100 µM each time. For the same compound, the TGI in [7], in [8], in test [9] and in test [10] was over 100 µM throughout.
In the case of `O=c1c2ccccc2n2n1Cc1ccccc1C2`, the TGI in test [1], in test [2], in [3], in test [4], in [5] and in test [6] was over 100 µM in each case. In addition, the TGI in test [7], in test [8], in test [9] and in test [10] was over 100 µM in each case.
For `CC(=O)[C@]1(C)[C@H](C)O[C@](C)(CO)[C@H]1O[Si](C)(C)c1ccccc1`, the TGI in test [1], in test [2], in test [3], in test [4], in test [5] and in [6] was over 100 µM in each case. For the same compound, the TGI was 46.6 µM in [7], over 100 µM in [8], over 100 µM in test [9] and 44.4 µM in test [10].
Take `Cc1cc(S(=O)(=O)Nc2nc(N)nc(N(C)C)n2)c(SC(C(=O)O)c2ccccc2)cc1Cl` (stereo not given): the TGI in test [1], in [2], in [3], in test [4], in test [5] and in [6] was over 10 µM in each case. Further, the TGI in test [7], in test [8], in test [9] and in test [10] was over 10 µM throughout.
Take `CN1CC(S(=O)(=O)c2ccccc2)CC(S(=O)(=O)c2ccccc2)C1c1ccccc1` (stereo not given): the TGI in test [1] was 38.7 µM; in test [2], 36.9 µM; in test [3], 34.4 µM; in [4] it was over 100 µM; in test [5] it was 65.5 µM; in test [6] it was 25.8 µM. The TGI in test [7] was found to be 29.4 µM; in [8], 30 µM; in test [9] it was 32.6 µM; in [10], 29.7 µM.
Take `Cc1nc2ccc(S(=O)(=O)Nc3ccccc3Cl)cc2c(=O)n1NC(=O)CNc1ccccc1Cl`: the TGI in test [1], in test [2], in test [3], in test [4], in test [5] and in [6] was over 100 µM throughout. Besides, the TGI in test [7], in test [8], in test [9] and in test [10] was over 100 µM in each case.
